# Measured values published in PubChem BioAssay (NCI).
#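 Assay format: 96-well plates, 48-hour exposure. The concentration for 50% growth inhibition is given as GI50. At the TGI there is no net growth.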
# Key:
# Experiment in all cases: NCI tumour cell line growth inhibition, 48 h
# NCI-H226 lung = tested on: NCI-H226 lung
# NCI-H23 lung = tested on: NCI-H23 lung
# NCI-H460 lung = tested on: NCI-H460 lung
# NCI-H522 lung = tested on: NCI-H522 lung
# OVCAR-3 ovarian = tested on: OVCAR-3 ovarian
# OVCAR-4 ovarian = tested on: OVCAR-4 ovarian
# OVCAR-5 ovarian = tested on: OVCAR-5 ovarian
# OVCAR-8 ovarian = tested on: OVCAR-8 ovarian
# RPMI-8226 leukemia = tested on: RPMI-8226 leukemia
# RXF 393 renal = tested on: RXF 393 renal
# SF-268 CNS = tested on: SF-268 CNS
# SF-295 CNS = tested on: SF-295 CNS
# SF-539 CNS = tested on: SF-539 CNS
# SK-MEL-2 melanoma = tested on: SK-MEL-2 melanoma
# SK-MEL-28 melanoma = tested on: SK-MEL-28 melanoma
# SK-MEL-5 melanoma = tested on: SK-MEL-5 melanoma
# SK-OV-3 ovarian = tested on: SK-OV-3 ovarian
# SN12C renal = tested on: SN12C renal
# SNB-19 CNS = tested on: SNB-19 CNS
# SNB-75 CNS = tested on: SNB-75 CNS
# SNB-78 CNS = tested on: SNB-78 CNS
# SW-620 colon = tested on: SW-620 colon
# TK-10 renal = tested on: TK-10 renal
# U251 CNS = tested on: U251 CNS
# UACC-257 melanoma = tested on: UACC-257 melanoma
# UACC-62 melanoma = tested on: UACC-62 melanoma
# UO-31 renal = tested on: UO-31 renal
structure (smiles),measurement,setting,value
NC1CCCCC1N.O=C([O-])c1cc(S(=O)(=O)Nc2cc(S(=O)(=O)[O-])cc3cc(S(=O)(=O)[O-])cc(O)c23)ccc1[O-].[Pt+4],GI50,NCI-H226 lung,> 100 µM
same,TGI,NCI-H226 lung,> 100 µM
same,GI50,NCI-H23 lung,> 100 µM
same,TGI,NCI-H23 lung,> 100 µM
same,GI50,NCI-H460 lung,41.8 µM
same,TGI,NCI-H460 lung,> 100 µM
same,GI50,NCI-H522 lung,> 100 µM
same,TGI,NCI-H522 lung,> 100 µM
same,GI50,OVCAR-3 ovarian,> 100 µM
same,TGI,OVCAR-3 ovarian,> 100 µM
same,GI50,OVCAR-4 ovarian,> 100 µM
same,TGI,OVCAR-4 ovarian,> 100 µM
same,GI50,OVCAR-5 ovarian,> 100 µM
same,TGI,OVCAR-5 ovarian,> 100 µM
same,GI50,OVCAR-8 ovarian,> 100 µM
same,TGI,OVCAR-8 ovarian,> 100 µM
same,GI50,RPMI-8226 leukemia,89.5 µM
same,TGI,RPMI-8226 leukemia,> 100 µM
same,GI50,RXF 393 renal,> 100 µM
same,TGI,RXF 393 renal,> 100 µM
same,GI50,SF-268 CNS,> 100 µM
same,TGI,SF-268 CNS,> 100 µM
same,GI50,SF-295 CNS,> 100 µM
same,TGI,SF-295 CNS,> 100 µM
same,GI50,SF-539 CNS,> 100 µM
same,TGI,SF-539 CNS,> 100 µM
same,GI50,SK-MEL-2 melanoma,> 100 µM
same,TGI,SK-MEL-2 melanoma,> 100 µM
same,GI50,SK-MEL-28 melanoma,> 100 µM
same,TGI,SK-MEL-28 melanoma,> 100 µM
same,GI50,SK-MEL-5 melanoma,88.7 µM
same,TGI,SK-MEL-5 melanoma,> 100 µM
same,GI50,SK-OV-3 ovarian,> 100 µM
same,TGI,SK-OV-3 ovarian,> 100 µM
same,GI50,SN12C renal,> 100 µM
same,TGI,SN12C renal,> 100 µM
same,GI50,SNB-19 CNS,> 100 µM
same,TGI,SNB-19 CNS,> 100 µM
same,GI50,SNB-75 CNS,> 100 µM
same,TGI,SNB-75 CNS,> 100 µM
same,GI50,SNB-78 CNS,> 100 µM
same,TGI,SNB-78 CNS,> 100 µM
same,GI50,SW-620 colon,> 100 µM
same,TGI,SW-620 colon,> 100 µM
same,GI50,TK-10 renal,> 100 µM
same,TGI,TK-10 renal,> 100 µM
same,GI50,U251 CNS,> 100 µM
same,TGI,U251 CNS,> 100 µM
same,GI50,UACC-257 melanoma,> 100 µM
same,TGI,UACC-257 melanoma,> 100 µM
same,GI50,UACC-62 melanoma,> 100 µM
same,TGI,UACC-62 melanoma,> 100 µM
same,GI50,UO-31 renal,> 100 µM
same,TGI,UO-31 renal,> 100 µM
